How the values were obtained:
[1] = tested on: bacterial growth in kaolin slurry; assay: Kaolin slurry preservation test: biocide-dosed 65% solids slurry plated on standard method agar, samples as treated; type: cell-based, bacteria
Method: (§1) In the comparative testing, dry kaolin was mixed with water to achieve a 65% solid slurry material. This material contained no biocide. The slurry was then split into 200 gram aliquots and dosed with different biocides at different concentration as shown in Tables 1-3. All samples were kept at 50° C. until the end of the testing, which was up to 28 days.
A number of different and known biocides were used in the study and they include glutaraldehyde (glute), 1,2 benzithiazolin-3-one (BIT), tetrahydro-3-5-methyl-2H-1,3,5-thiadizine-2-thione (thione), isothiazoline (ISO), bronopol (BNPD) or orthophenyl phenate (OPP). For shorthand purposes, the study refers to the tradename of the biocide, which is found in the above listing of the biocides. Metam sodium is designated as SMDC and MDTCMA is used without change
(§2) The protocol for the testing of each sample is as follows: • 1) dosed with a recorded level of biocide; • 2) mixed for 24 hours contact time and plated using standard method agar for bacterial growth; • 3) remixed daily for 1 hour and retested for bacterial growth at Day 3; • 4) remixed daily for 1 hour and retested for bacterial growth at Day 7; • 5) remixed daily for 1 hour and retested for bacterial growth at Day 14; • 6) on day 20, samples were split into two containers: one container was inoculated (or challenged) with ˜10^5 cfu/ml bacteria, the other was left “as treated”, the challenge material was obtained from a contaminated kaolin product and is assumed to be representative of the types of bacteria that are seen in the kaolin industry, and the two sets of samples were prepared for Day 21 testing; • 7) both sets were remixed daily for 1 hour and retested for bacterial growth at Day 21; and • 8) both sets remixed daily for 1 hour and retested for bacterial growth at Day 28.
Different contact times were used to see how quickly the bacterial population was effected by the biocide.

[2] = tested on: bacteria from a contaminated kaolin product; assay: Kaolin slurry preservation test, challenge: on day 20 samples inoculated with ~10^5 cfu/ml bacteria from a contaminated kaolin product; type: cell-based
Method: as §1, §2

Question: For CN1CSC(=S)N(C)C1 [24% Thione, tetrahydro-3,5-dimethyl-2H-1,3,5-thiadiazine-2-thione, reference compound], which “Log Red, contact time 1 day” value ([1]; 500 ppm, Table 2) is on record?
Answer: Its value is 0.

Question: And the “Log Red, contact time 3 day” value ([1]; 500 ppm, Table 2)?
Answer: Its value is 3.

Question: What about the “Log Red, contact time 7 day” value ([1]; 500 ppm, Table 2) of the same molecule?
Answer: Its value is 4.

Question: What about the “Log Red, contact time 14 day” value ([1]; 500 ppm, Table 2) of the same molecule?
Answer: Its value is 4.

Question: And the “Log Red, contact time 21 day” value ([1]; 500 ppm, Table 2)?
Answer: The value was 5.

Question: And the “Log Red, contact time 28 day” value ([1]; 500 ppm, Table 2)?
Answer: The value was 5.

Question: And the “cfu/mL, contact time 1 day” value ([1]; 500 ppm, Table 2)?
Answer: The value was 13,340,000 cfu/mL.

Question: And the “cfu/mL, contact time 3 day” value ([1]; 500 ppm, Table 2)?
Answer: The value was 11,000 cfu/mL.

Question: What about the “cfu/mL, contact time 7 day” value ([1]; 500 ppm, Table 2) of the same molecule?
Answer: Its value is 5,600 cfu/mL.

Question: What about the “cfu/mL, contact time 14 day” value ([1]; 500 ppm, Table 2) of the same molecule?
Answer: The value was 2,100 cfu/mL.

Question: And the “cfu/mL, contact time 21 day” value ([1]; 500 ppm, Table 2)?
Answer: Its value is 1,100 cfu/mL.

Question: And the “cfu/mL, contact time 28 day” value ([1]; 500 ppm, Table 2)?
Answer: The value was 800 cfu/mL.

Question: What about the “Log Red, contact time 1 day” value ([1]; 500 ppm, Table 3) of the same molecule?
Answer: The value was 2.

Question: And the “Log Red, contact time 3 day” value ([1]; 500 ppm, Table 3)?
Answer: The value was 2.

Question: What about the “Log Red, contact time 7 day” value ([1]; 500 ppm, Table 3) of the same molecule?
Answer: The value was 2.

Question: What about the “Log Red, contact time 14 day” value ([1]; 500 ppm, Table 3) of the same molecule?
Answer: Its value is 3.

Question: What about the “Log Red, contact time 21 day” value ([1]; 500 ppm, Table 3) of the same molecule?
Answer: Its value is 2.

Question: And the “Log Red, contact time 28 day” value ([1]; 500 ppm, Table 3)?
Answer: The value was 2.

Question: And the “cfu/mL, contact time 1 day” value ([1]; 500 ppm, Table 3)?
Answer: The value was 3,300 cfu/mL.

Question: And the “cfu/mL, contact time 3 day” value ([1]; 500 ppm, Table 3)?
Answer: Its value is 100 cfu/mL.

Question: And the “cfu/mL, contact time 7 day” value ([1]; 500 ppm, Table 3)?
Answer: The value was 100 cfu/mL.

Question: What about the “cfu/mL, contact time 14 day” value ([1]; 500 ppm, Table 3) of the same molecule?
Answer: The value was 100 cfu/mL.

Question: And the “cfu/mL, contact time 21 day” value ([1]; 500 ppm, Table 3)?
Answer: Its value is 100 cfu/mL.

Question: What about the “cfu/mL, contact time 28 day” value ([1]; 500 ppm, Table 3) of the same molecule?
Answer: Its value is 100 cfu/mL.

Question: And the “Log Red, contact time 1 day” value ([1]; 1000 ppm, Table 2)?
Answer: Its value is 1.

Question: What about the “Log Red, contact time 3 day” value ([1]; 1000 ppm, Table 2) of the same molecule?
Answer: The value was 4.

Question: And the “Log Red, contact time 7 day” value ([1]; 1000 ppm, Table 2)?
Answer: The value was 4.

Question: What about the “Log Red, contact time 14 day” value ([1]; 1000 ppm, Table 2) of the same molecule?
Answer: The value was 5.

Question: And the “Log Red, contact time 21 day” value ([1]; 1000 ppm, Table 2)?
Answer: The value was 5.

Question: What about the “Log Red, contact time 28 day” value ([1]; 1000 ppm, Table 2) of the same molecule?
Answer: The value was 5.

Question: And the “cfu/mL, contact time 1 day” value ([1]; 1000 ppm, Table 2)?
Answer: Its value is 6,670,000 cfu/mL.

Question: What about the “cfu/mL, contact time 3 day” value ([1]; 1000 ppm, Table 2) of the same molecule?
Answer: The value was 6,800 cfu/mL.

Question: What about the “cfu/mL, contact time 7 day” value ([1]; 1000 ppm, Table 2) of the same molecule?
Answer: The value was 2,600 cfu/mL.

Question: What about the “cfu/mL, contact time 14 day” value ([1]; 1000 ppm, Table 2) of the same molecule?
Answer: The value was 1,200 cfu/mL.

Question: What about the “cfu/mL, contact time 21 day” value ([1]; 1000 ppm, Table 2) of the same molecule?
Answer: The value was 300 cfu/mL.

Question: What about the “cfu/mL, contact time 28 day” value ([1]; 1000 ppm, Table 2) of the same molecule?
Answer: Its value is 200 cfu/mL.

Question: And the “Log Red, contact time 1 day” value ([1]; 1000 ppm, Table 3)?
Answer: The value was 3.

Question: And the “Log Red, contact time 3 day” value ([1]; 1000 ppm, Table 3)?
Answer: Its value is 2.

Question: What about the “Log Red, contact time 7 day” value ([1]; 1000 ppm, Table 3) of the same molecule?
Answer: Its value is 2.

Question: And the “Log Red, contact time 14 day” value ([1]; 1000 ppm, Table 3)?
Answer: Its value is 3.

Question: And the “Log Red, contact time 21 day” value ([1]; 1000 ppm, Table 3)?
Answer: Its value is 2.

Question: What about the “Log Red, contact time 28 day” value ([1]; 1000 ppm, Table 3) of the same molecule?
Answer: The value was 2.

Question: And the “cfu/mL, contact time 1 day” value ([1]; 1000 ppm, Table 3)?
Answer: The value was 100 cfu/mL.

Question: And the “cfu/mL, contact time 3 day” value ([1]; 1000 ppm, Table 3)?
Answer: Its value is 100 cfu/mL.

Question: What about the “cfu/mL, contact time 7 day” value ([1]; 1000 ppm, Table 3) of the same molecule?
Answer: The value was 100 cfu/mL.

Question: What about the “cfu/mL, contact time 14 day” value ([1]; 1000 ppm, Table 3) of the same molecule?
Answer: The value was 100 cfu/mL.

Question: What about the “cfu/mL, contact time 21 day” value ([1]; 1000 ppm, Table 3) of the same molecule?
Answer: The value was 100 cfu/mL.

Question: What about the “cfu/mL, contact time 28 day” value ([1]; 1000 ppm, Table 3) of the same molecule?
Answer: The value was 100 cfu/mL.

Question: What about the “Log Red, 21 day Challenge” value ([2]; 500 ppm, Table 2) of the same molecule?
Answer: The value was 3.

Question: What about the “Log Red, 28 day Challenge” value ([2]; 500 ppm, Table 2) of the same molecule?
Answer: The value was 4.

Question: And the “cfu/mL, 21 day Challenge” value ([2]; 500 ppm, Table 2)?
Answer: Its value is 39,000 cfu/mL.

Question: And the “cfu/mL, 28 day Challenge” value ([2]; 500 ppm, Table 2)?
Answer: The value was 3,400 cfu/mL.

Question: And the “Log Red, 21 day Challenge” value ([2]; 500 ppm, Table 3)?
Answer: The value was 5.

Question: What about the “Log Red, 28 day Challenge” value ([2]; 500 ppm, Table 3) of the same molecule?
Answer: Its value is 5.

Question: What about the “cfu/mL, 21 day Challenge” value ([2]; 500 ppm, Table 3) of the same molecule?
Answer: The value was 100 cfu/mL.

Question: What about the “cfu/mL, 28 day Challenge” value ([2]; 500 ppm, Table 3) of the same molecule?
Answer: The value was 100 cfu/mL.

Question: And the “Log Red, 21 day Challenge” value ([2]; 1000 ppm, Table 2)?
Answer: The value was 5.

Question: What about the “Log Red, 28 day Challenge” value ([2]; 1000 ppm, Table 2) of the same molecule?
Answer: The value was 4.

Question: What about the “cfu/mL, 21 day Challenge” value ([2]; 1000 ppm, Table 2) of the same molecule?
Answer: The value was 900 cfu/mL.

Question: And the “cfu/mL, 28 day Challenge” value ([2]; 1000 ppm, Table 2)?
Answer: Its value is 1,500 cfu/mL.

Question: What about the “Log Red, 21 day Challenge” value ([2]; 1000 ppm, Table 3) of the same molecule?
Answer: The value was 5.

Question: And the “Log Red, 28 day Challenge” value ([2]; 1000 ppm, Table 3)?
Answer: Its value is 5.

Question: And the “cfu/mL, 21 day Challenge” value ([2]; 1000 ppm, Table 3)?
Answer: Its value is 100 cfu/mL.

Question: What about the “cfu/mL, 28 day Challenge” value ([2]; 1000 ppm, Table 3) of the same molecule?
Answer: Its value is 100 cfu/mL.

Question: And the “biocide effectiveness after inoculation, overall result of the studies” value ([2]; after inoculation)?
Answer: The value was “most effective biocides”.

— US20170000129A1, “METHOD FOR TREATING MINERAL SLURRIES WITH A BIOCIDE” (priority 2015, published 2017)
